Biological target: B-Raf (V600E)-kinase (Homo sapiens (Human), UniProt P15056, V600E)
Assay: Kinase test B-RAF (V600E)
Assay type: biochemical
Settings: B-RAF (V600E) kinase test, 250 μM ATP
Protocol: Kinase Test B-RAF (V600E)
In a dilution series 10 μL of test substance solution are placed in a multiwell plate. The dilution series is selected so that generally a range of concentrations of 2 μM to 0.119 nM or 0.017 nM is covered. If necessary the initial concentration of 2 μM is changed to 50 μM, 10 μM or 0.4 μM or 0.2857 μM and further dilution is carried out accordingly. The final concentration of DMSO is 5%. 10 μL of the B-Raf (V600E)-kinase solution are pipetted in (containing 0.5 ng B-Raf (V600E)-kinase in 20 mM Tris-HCl pH 7.5, 0.1 mM EDTA, 0.1 mM EGTA, 0.286 mM sodium orthovanadate, 10% glycerol, 1 mg/mL bovine serum albumin, 1 mM dithiothreitol) and the mixture is incubated for 24 h at RT under with shaking. The kinase reaction is started by the addition of 20 μL ATP solution [final concentration: 250 μM ATP, 30 mM Tris-HCl pH 7.5, 0.02% Brij, 0.2 mM sodium orthovanadate, 10 mM magnesium acetate, 0.1 mM EGTA, phosphatase cocktail (Sigma, # P2850, dilution recommended by the manufacturer), 0.1 mM EGTA] and 10 μL MEK1 solution [containing 50 ng biotinylated MEK1 (prepared from purified MEK1 according to standard procedure, e.g. with EZ-Link Sulpho-NHS-LC-Biotin reagent, Pierce, #21335) and carried out for 60 min at RT with constant shaking. The reaction is stopped by the addition of 12 μL of a 100 mM EDTA solution and incubation is continued for a further 5 min. 55 μL of the reaction solution are transferred into a streptavidin-coated plate (e.g. Streptawell HighBond, Roche, #11989685001) and shaken gently for 1 h at RT, in order to bind biotinylated MEK1 to the plate. After elimination of the liquid the plate is washed five times with 200 μL of 1×PBS and 100 μL solution of primary antibody plus europium-labelled secondary antibody [Anti Phospho-MEK (Ser217/221), Cell Signaling, #9121 and Eu-N1 labeled goat-anti-rabbit antibody, Perkin Elmer, # AD0105], the primary antibody is diluted 1:2000 and the secondary antibody is diluted to 0.4-0.5 μg/mL in Delfia Assay Buffer (Perkin Elmer, #1244-111). After 1 h shaking at RT the solution is poured away and washed five times with 200 μL Delfia Wash Buffer (Perkin Elmer, #4010-0010/#1244-114). After the addition of 200 μL Enhancement Solution (Perkin Elmer, #4001-0010/#1244-105) the mixture is shaken for 10 min at RT and then measured in a Wallac Victor using the program “Delfia Time Resolved Fluorescence (Europium)”. IC50 values are obtained from these dosage-activity curves using a software program (GraphPadPrizm).

Sequence of B-Raf (V600E)-kinase (P15056 whole entry V600E): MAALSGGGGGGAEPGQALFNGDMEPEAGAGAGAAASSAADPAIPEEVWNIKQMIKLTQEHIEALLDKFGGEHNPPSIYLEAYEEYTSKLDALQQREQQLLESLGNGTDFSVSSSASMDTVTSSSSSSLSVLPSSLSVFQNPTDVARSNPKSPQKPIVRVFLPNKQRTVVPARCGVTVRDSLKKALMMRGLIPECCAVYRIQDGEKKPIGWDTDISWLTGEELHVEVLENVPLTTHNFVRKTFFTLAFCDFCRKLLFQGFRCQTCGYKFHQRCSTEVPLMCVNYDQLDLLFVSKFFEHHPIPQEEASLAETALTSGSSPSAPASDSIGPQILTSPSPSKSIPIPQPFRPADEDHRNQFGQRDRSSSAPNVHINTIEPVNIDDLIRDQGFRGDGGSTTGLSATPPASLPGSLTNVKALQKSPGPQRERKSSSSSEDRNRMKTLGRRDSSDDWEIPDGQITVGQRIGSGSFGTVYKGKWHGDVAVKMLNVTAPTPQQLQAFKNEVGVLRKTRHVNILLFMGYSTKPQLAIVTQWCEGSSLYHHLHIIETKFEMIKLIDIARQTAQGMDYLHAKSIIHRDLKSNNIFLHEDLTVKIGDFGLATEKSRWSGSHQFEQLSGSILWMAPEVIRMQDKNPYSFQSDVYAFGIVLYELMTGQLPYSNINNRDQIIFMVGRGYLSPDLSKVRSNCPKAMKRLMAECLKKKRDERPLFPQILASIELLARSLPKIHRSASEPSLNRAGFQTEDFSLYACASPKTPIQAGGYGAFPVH

SMILES | IC50 [nM]
Cc1ccc(C(=O)Nc2cccc(C(F)(F)F)c2)cc1Nc1ncnc2c(N)nc(N3CCCN(c4ccccn4)CC3)nc12 [I-67] | 3
Cc1ccc(C(=O)Nc2cccc(C(F)(F)F)c2)cc1Nc1ncnc2c(N)nc(N3CCCN(C)CC3)nc12 [I-68] | < 1
Cc1ccc(C(=O)Nc2cc(C(C)(C)C)n[nH]2)cc1Nc1ncnc2c(N)nc(N3C[C@@H]4C[C@H]3CN4)nc12 [I-69] | 2
Cc1ccc(C(=O)Nc2cc(N(C)CCN(C)C)cc(C(F)(F)F)c2)cc1Nc1ncnc2c(N)nc(N3CCCOCC3)nc12 [I-70] | 3
Cc1ccc(C(=O)Nc2ccc(C#N)c(C(F)(F)F)c2)cc1Nc1ncnc2c(N)nc(N3CCN(C)CC3)nc12 [I-71] | 7
Cc1ccc(C(=O)Nc2cc(C(C)(C)C)nn2C)cc1Nc1ncnc2c(N)nc(N3CCN(C)CC3)nc12 [I-72] | 12
Cc1ccc(C(=O)Nc2cc(C(F)(F)F)ccn2)cc1Nc1ncnc2c(N)nc(N3CCN(C)CC3)nc12 [I-73] | 2
Cc1ccc(C(=O)Nc2ccc(Cl)c(C(F)(F)F)c2)cc1Nc1ncnc2c(N)nc(N3CCN(C)CC3)nc12 [I-74] | 3
Cc1cn(-c2cc(NC(=O)c3ccc(C)c(Nc4ncnc5c(N)nc(N6CCN(C)CC6)nc45)c3)cc(C(F)(F)F)c2)cn1 [I-75] | 54
Cc1ccc(C(=O)Nc2cc(N(C)CCN(C)C)cc(C(F)(F)F)c2)cc1Nc1ncnc2c(N)nc(N3CCOCC3)nc12 [I-76] | 1
CCN1CCN(c2cc(NC(=O)c3ccc(C)c(Nc4ncnc5c(N)nc(N6CCOCC6)nc45)c3)cc(C(F)(F)F)c2)CC1 [I-77] | 2
Cc1ccc(C(=O)Nc2cc(N(C)CCN(C)C)cc(C(F)(F)F)c2)cc1Nc1ncnc2c(N)nc(N(C)C)nc12 [I-78] | 8
CCN1CCN(c2cc(NC(=O)c3ccc(C)c(Nc4ncnc5c(N)nc(N(C)C)nc45)c3)cc(C(F)(F)F)c2)CC1 [I-79] | 19
Cc1ccc(C(=O)Nc2cccc(C(C)(C)C)c2)cc1Nc1ncnc2c(N)nc(N3CCN(C)CC3)nc12 [I-80] | 2
CCN1CCN(c2cc(NC(=O)c3ccc(C)c(Nc4ncnc5c(N)nc(N6CCCOCC6)nc45)c3)cc(C(F)(F)F)c2)CC1 [I-81] | 3
CN1CCN(c2nc(N)c3ncnc(Nc4ccc(F)c(C(=O)Nc5cc(C(C)(C)C)n[nH]5)c4)c3n2)CC1 [I-82] | 676
CC(C)CN1CCN(c2nc(N)c3ncnc(Nc4ccc(F)c(C(=O)Nc5cc(C(C)(C)C)n[nH]5)c4)c3n2)CC1 [I-83] | 2200
Cc1ccc(C(=O)Nc2cc(C(C)(C)C)nn2C)cc1Nc1ncnc2c(N)nc(N3CCN(CC(C)C)CC3)nc12 [I-84] | 11
Cc1ccc(C(=O)Nc2cc(C(C)(C)C)nn2C)cc1Nc1ncnc2c(N)nc(N3CCN4CCCC4C3)nc12 (stereo not shown) [I-85] | 7
Cc1ccc(C(=O)Nc2cc(N(C)CCN(C)C)cc(C(F)(F)F)c2)cc1Nc1ncnc2c(N)nc(N3CC[C@H](F)C3)nc12 [I-86] | 4
CCN1CCN(c2cc(NC(=O)c3ccc(C)c(Nc4ncnc5c(N)nc(N6CCCC6)nc45)c3)cc(C(F)(F)F)c2)CC1 [I-87] | 9
CCN1CCN(c2cc(NC(=O)c3ccc(C)c(Nc4ncnc5c(N)nc(N6CC[C@H](F)C6)nc45)c3)cc(C(F)(F)F)c2)CC1 [I-88] | 10
Cc1ccc(NC(=O)c2cccc(C(F)(F)F)c2)cc1Nc1ncnc2c(N)nc(N3CCN(C)CC3)nc12 [II-1] | 26
Cc1ccc(NC(=O)c2cccc(C(F)(F)F)c2)cc1Nc1ncnc2c(N)nc(N3CCCN(C)CC3)nc12 [II-2] | 41
Cc1ccc(NC(=O)c2cccc(C(F)(F)F)c2)cc1Nc1ncnc2c(N)nc(NN3CCN(C)CC3)nc12 [II-3] | 50
Cc1ccc(NC(=O)c2cccc(C(F)(F)F)c2)cc1Nc1ncnc2c(N)nc(NCc3ccncc3)nc12 [II-4] | 81
Cc1ccc(NC(=O)c2cccc(C(F)(F)F)c2)cc1Nc1ncnc2c(N)nc(NCc3cccnc3)nc12 [II-5] | 50
Cc1ccc(NC(=O)c2cccc(C(F)(F)F)c2)cc1Nc1ncnc2c(N)nc(NCc3ccccn3)nc12 [II-6] | 96

Reference: patent US8653087B2, “Pyrido [5, 4-D] pyrimidines as cell proliferation inhibitors” (Boehringer Ingelheim International GmbH, priority 2008, dated 2014)
